Measurements reported in patent publication US20170000749A1, “Methods for Treating Cognitive Disorders Using Inhibitors of Histone Deacetylase” (Forum Pharmaceuticals, Inc., priority 2008, published 2017).

What was measured:
[1] = test system: Drosophila Huntington's Disease model flies; test: In Vivo Drosophila Fly Assay for Treatment of Huntington's Disease (automated climbing behavioral assay); parameters: species or system Drosophila melanogaster; conditions: for Speed 1 to 7 (concentration) 30 uM / Speed 1 to 7 (concentration) 100 uM / Speed 1 to 7 (concentration) 300 uM: effect size of early speed (days 1-7) vs DMSO-carrier control; for Speed 8 to 10 (concentration) 30 uM / Speed 8 to 10 (concentration) 100 uM / Speed 8 to 10 (concentration) 300 uM: effect size of late speed (days 8-10) vs DMSO-carrier control
From the text: The Drosophila Huntington's Disease assay used to screen compounds of the present disclosure followed that of WO 2007/002497, which is hereby incorporated by reference in its entirety.
Briefly, parental (model and driver) lines are maintained in sufficient quantities to provide virgins and males for assay crosses as well as perpetuating the lines. Disease model flies are maintained with the disease genes “silent”, functionally linked to a UAS enhancer element. The “driver” lines contain a GAL4 element under the control of a tissue-specific promoter. These are crossed together to generate the assay flies which have tissue-specific (i.e. CNS) expression of the disease gene(s).
Weekly assay crosses are set up with sufficient virgins and males to generate enough assay embryos for sorting. Approximately 50,000 males and 75,000 virgins are crossed in population cages. Embryos are collected for an eight hour window two days later. The embryos are then sorted onto 16 mm assay vials containing regular fly media and allowed to develop. Flies containing both the GAL4 driver element and the disease gene(s) are detected by the presence of GFP, a fluorescing protein. Approximately 10 assay flies eclose per vial, the optimal number for the behavioral assay. Once the flies eclose, they are transferred onto assay vials containing liquid Drosophila food. Similarly, control crosses are set up with virgins of the driver and males from a non-disease UAS line. Throughout fly production and the assay days, all flies are maintained at constant temperature and humidity, with preset light cycle, optimized for the particular lines and crosses.
Quality control (QC) for the parental lines is carried out weekly by collecting a sample of random male flies from each line. Single-fly PCR is carried out to ascertain the presence of the GAL4 or UAS element. If greater than 5% of the individuals lack the appropriate element, the assay cross is aborted. A second form of QC is also carried out to ensure that the GAL4 element is able to drive expression of a transgene. A sample of individual “driver” virgins is crossed to UAS-GFP males. Their progeny are visually checked for GFP expression in the appropriate tissues. Lack of GFP in greater than 4% of the crosses results in the assay being aborted.
Test compounds are weighed out and dissolved in DMSO at stock concentrations 100× what is desired in the assay and arrayed into 96-well master plates, including wells for DMSO-only controls and the positive control(s). A single well is reserved for a colored dye used to ensure proper orientation of compounds during drug dispensing and fly transfer. Replicate daughter plates for each day of the assay are stamped out. The plates are bar coded and stored at −20 C until used for the assay.
For a particular assay day, the plates are thawed and a robotic liquid handler is used to dilute the test compound into the liquid fly food and dispense the mixture into the assay vials. For Huntington Disease (HD) models, eight replicates per single treatment (one compound, one concentration) are dispensed. Fresh test compound treated media is made daily during an assay.
On the day the assay flies eclose (emerge from […]; assay Day 0) they are transferred to the test compound treated vials. On assay Day 1, the flies are transferred onto clean test compound treated vials one hour before assay time. They are then placed in the assay machine to acclimate to the appropriate climate conditions.
The assay machine is an environmentally-enclosed and controlled robot that can maintain user-set temperature and humidity. The machine can hold up to sixteen 96-vial racks in four quadrants, for a total of 1536 vials. There are four camera stations, which hold four vials each and a CCD camera for movie capture. […]

[2] = target: one or more of HDAC-1, HDAC-2, HDAC-3, HDAC-4, HDAC-5, HDAC-6, HDAC-7, HDAC-8, HDAC-9, HDAC-10 and HDAC-11; test: Inhibition of Histone Deacetylase Enzymatic Activity (Boc-Lys(Ac)-AMC substrate, Fluor-de-Lys developer); type: biochemical; conditions: Table 10; read-out: HDAC Inhibition (IC50 μM) HDAC Enzyme
Method: The following protocol is used to assay the compounds of the disclosure.
The mixture is pre-incubated for 5 minutes at room temperature. The reaction is started by bringing the temperature to 37° C. and adding 16 μl substrate. Total reaction volume is 50 μl.
In the Tables 8, 9 and 10, A≦0.05 μM; 0.05 μM<B≦0.1 μM; 0.1 μM<C≦1 μM; and 1 μM<D≦10 μM.

[3] = test system: HDAC activity in primary mouse cortical cultures; test: Whole-Cell Histone Deacetylase (HDAC) Inhibition Assay in Primary Mouse Cortical Cultures; type: cell-based; conditions: whole-cell (WC), mouse cortical neurons; Table 10; read-out: HDAC Inhibition (IC50 μM) WC mouse cortical neurons
Summary of the method: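 Primary neocortical neurons from E17 Balb/C mouse embryos were plated at 50000 cells/well and treated at DIV9 with ten-point DMSO dilutions for 16-18 h at 37° C, in triplicate. BOC-Lys(Ac)-AMC substrate was then added for 1 h. Fluor de Lys developer containing 1 uM TSA produced a fluorophore, which was read.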

Structure (SMILES) | Speed 1 to 7 (concentration) 30 uM [1] | Speed 1 to 7 (concentration) 100 uM [1] | Speed 1 to 7 (concentration) 300 uM [1] | Speed 8 to 10 (concentration) 30 uM [1] | Speed 8 to 10 (concentration) 100 uM [1] | Speed 8 to 10 (concentration) 300 uM [1] | IC50 [2] [µM] | IC50 [3] [µM]
O=C(NO)c1cnc(N2CC3CC2CN3c2cccc(C(F)(F)F)c2)nc1 (centres unmarked) | 0.02 | 0.48 | 0.506 | −0.14 | 0.3 | −0.112 | – | –
O=C(NO)c1cnc(N2CC3CC2CN3c2cccc(OC(F)(F)F)c2)nc1 (centres unmarked) | 0.05 | −0.01 | 0.68 | 0.15 | 0.16 | 0.35 | – | –
O=C(NO)c1cnc(N2CC3CC2CN3c2ccc3c(c2)OC(F)(F)O3)nc1 (centres unmarked) | 0.28 | 0.64 | 0.66 | 0.22 | 0.46 | 0.58 | – | –
O=C(NO)c1cnc(N2CC3CC2CN3c2cccc(SC(F)(F)F)c2)nc1 (centres unmarked) | 0.63 | 0.38 | 0.03 | 0.28 | 0.02 | −0.29 | – | –
O=C(NO)c1cnc(N2CC3CC2CN3c2cc(C(F)(F)F)ccn2)nc1 (centres unmarked) | 0.468 | 0.82 | 0.3 | 0.087 | 0.82 | 0.54 | – | –
O=C(NO)c1cnc(N2CC3CC2CN3c2cccc(C(F)(F)F)n2)nc1 (centres unmarked) | 0.781 | 0.549 | 0.411 | 0.291 | 0.376 | 0.471 | – | –
O=C(NO)c1cnc(N2CC3CC2CN3c2cccc3nonc23)nc1 (centres unmarked) | – | 0.84 | 0.68 | – | 0.26 | 0.5 | – | –
Cc1ccc(N2CC3CC2CN3c2ncc(C(=O)NO)cn2)cc1 (centres unmarked) | −0.007 | 0.046 | 0.829 | −0.134 | −0.369 | −0.107 | – | –
CC(C)OC(=O)N1CC2CC1CN2c1ncc(C(=O)NO)cn1 (centres unmarked) | 0.495 | 0.33 | −0.469 | 0.338 | 0.368 | 0.512 | – | –
Cc1cccc(N2CC3CC2CN3c2ncc(C(=O)NO)cn2)c1 (centres unmarked) | 0.493 | 0.588 | 0.412 | 0.036 | 0.359 | 0.439 | – | –
O=C(CCCCCCCN1C(=O)c2ccccc2Oc2ccccc21)NO [N-hydroxy-8-(11-oxodibenzo[b,f][1,4]oxazepin-10(11H)-yl)octanamide] | – | – | – | – | – | – | 0.05 to 0.1 | 1 to 5
O=C(NO)c1cnc(N2CCCN(C(=O)OCc3ccccc3)CC2)nc1 [benzyl 4-(5-(hydroxycarbamoyl)pyrimidin-2-yl)-1,4-diazepane-1-carboxylate] | – | – | – | – | – | – | 0.05 to 0.1 | 1 to 5
O=C(NO)c1ccc(C2=Nc3ccccc3Oc3ccc(F)cc32)cc1 [drawing 821] | 0.118 | −0.004 | 0.444 | −0.108 | 0.139 | 0.47 | – | –
